{
  "source": "patent US20070208068A1",
  "about": "“Aqueous Composition Comprising Thiazole Derivative” (R-TECH UENO, LTD. & Astellas Pharma Inc., priority 2004, published 2007)",
  "assay_type_in_all_cases": "physicochemical",
  "key": {"[1]": {"assay": "Effect of sodium chloride on the solubility of Compound A, B and C (aqueous saturated solutions)", "conditions": "for solubility: thermodynamic from solid; for Precipitation: aqueous saturated solution", "protocol": "Sodium chloride was added to thus obtained aqueous saturated solution of Compound A, B, and C respectively in an amount to give 0.4% NaCl solution and the mixture was stirred.\nSimilarly, the saturated aqueous solution of Compound A-C was added with sodium chloride in an amount to give 0.85% solution, and precipitation and solubility were observed."}, "[2]": {"assay": "Effect of the additives on solubility of Compound C (aqueous saturated solution)", "protocol": "To the saturated solution of Compound C prepared in the same manner as test example 1, glycerin in an amount to give 2.5% solution was added and the mixture was stirred. Similarly, mannitol in an amount to give 3.5% solution, boric acid in an amount to give 2% solution, potassium chloride in an amount to give 0.2% solution, disodium hydrogenphosphate in an amount to give 1% and sodium citrate in an amount to give 1% solution were added to the aqueous saturated solution of Compound C respectively. Precipitation and solubility, i.e. the change of the concentration of Compound C in the solution or supernatant were observed."}, "[3]": {"assay": "Effect of the additives on the stability of the aqueous solution comprising Compound C, stored at 40° C. in LDPE container"}, "[4]": {"assay": "Effect of the additives on the stability of the aqueous solution comprising Compound D, stored at 40° C. in LDPE container", "conditions": "Compound D 0.3%", "protocol": "Compound D was added with glycerin and distilled water and stirred to give clear aqueous solution (Conc. of Compound D: 0.3%, conc. of glycerin: 2.5%, about pH 6). Thus obtained solution was stored at 40° C. in the LDPE container and concentration of Compound D in the solution was observed over time."}, "[5]": {"conditions": "aqueous saturated solution with 0.4% NaCl, saline or isotonic, conc. in solution or supernatant, NaCl 0.4%"}, "[6]": {"conditions": "aqueous saturated solution with 0.85% NaCl, saline or isotonic, conc. in solution or supernatant, NaCl 0.85%"}, "[7]": {"conditions": "distilled water (injection grade), aqueous saturated solution in distilled water, NaCl 0%, A about pH 7, B about pH 3 (HCl), C about pH 7 (HCl)"}, "[8]": {"conditions": "Boric acid 1.68% and borax 0.018%, 40° C., 1 month"}, "[9]": {"conditions": "Boric acid 1.68% and borax 0.018%, 40° C., 3 months"}, "[10]": {"conditions": "Boric acid 1.68% and borax 0.018%, 40° C., 6 months"}},
  "data": [
    {"smiles": "CC(=O)Nc1nc(CCc2ccc(NC(=N)N)cc2)cs1", "note": "[Compound A]", "values": [
      {"measurement": "% Solubulity", "setting": "[1]; NaCl 0% (reference)", "value": "=100%"},
      {"measurement": "% Solubulity", "setting": "[1]; NaCl 0.4%, vs 0% NaCl", "value": 31, "unit": "%"},
      {"measurement": "% Solubulity", "setting": "[1]; NaCl 0.85%, vs 0% NaCl", "value": 20, "unit": "%"},
      {"measurement": "solubility", "setting": "[1]; [5]", "value": 1110, "unit": "µg/mL"},
      {"measurement": "solubility", "setting": "[1]; [6]", "value": 690, "unit": "µg/mL"},
      {"measurement": "Precipitation", "setting": "[1]; conc. of NaCl 0%", "value": "no"},
      {"measurement": "Precipitation", "setting": "[1]; conc. of NaCl 0.4%", "value": "yes"},
      {"measurement": "Precipitation", "setting": "[1]; conc. of NaCl 0.85%", "value": "yes"},
      {"measurement": "solubility", "setting": "[1]; [7]", "value": 3550, "unit": "µg/mL"}
    ]},
    {"smiles": "CC(=O)Nc1nc(CCc2ccc(CON)cc2)cs1", "note": "[Compound B]", "values": [
      {"measurement": "% Solubulity", "setting": "[1]; NaCl 0% (reference)", "value": "=100%"},
      {"measurement": "% Solubulity", "setting": "[1]; NaCl 0.4%, vs 0% NaCl", "value": 100, "unit": "%"},
      {"measurement": "% Solubulity", "setting": "[1]; NaCl 0.85%, vs 0% NaCl", "value": 100, "unit": "%"},
      {"measurement": "solubility", "setting": "[1]; [5]", "value": 1170, "unit": "µg/mL"},
      {"measurement": "solubility", "setting": "[1]; [6]", "value": 1190, "unit": "µg/mL"},
      {"measurement": "Precipitation", "setting": "[1]; conc. of NaCl 0%", "value": "no"},
      {"measurement": "Precipitation", "setting": "[1]; conc. of NaCl 0.4%", "value": "no"},
      {"measurement": "Precipitation", "setting": "[1]; conc. of NaCl 0.85%", "value": "no"},
      {"measurement": "solubility", "setting": "[1]; [7]", "value": 1120, "unit": "µg/mL"}
    ]},
    {"smiles": "CC(=O)Nc1nc(CCc2ccc(NC(=N)N)cc2)c(Cc2ccc(S(C)(=O)=O)cc2)s1", "note": "[Compound C]", "values": [
      {"measurement": "B/A ratio", "setting": "[2]; Boric acid 2%", "value": 100, "unit": "%"},
      {"measurement": "Conc. of C/w additive (B)", "setting": "[2]; Boric acid 2%", "value": 11590, "unit": "µg/mL"},
      {"measurement": "Precipitation", "setting": "[2]; Boric acid 2%", "value": "no"},
      {"measurement": "B/A ratio", "setting": "[2]; Glycerin 2.5%", "value": 95, "unit": "%"},
      {"measurement": "Conc. of C/w additive (B)", "setting": "[2]; Glycerin 2.5%", "value": 10910, "unit": "µg/mL"},
      {"measurement": "Precipitation", "setting": "[2]; Glycerin 2.5%", "value": "no"},
      {"measurement": "B/A ratio", "setting": "[2]; Mannitol 3.5%", "value": 96, "unit": "%"},
      {"measurement": "Conc. of C/w additive (B)", "setting": "[2]; Mannitol 3.5%", "value": 11050, "unit": "µg/mL"},
      {"measurement": "Precipitation", "setting": "[2]; Mannitol 3.5%", "value": "no"},
      {"measurement": "B/A ratio", "setting": "[2]; Potassium Chloride 0.2%", "value": 29, "unit": "%"},
      {"measurement": "Conc. of C/w additive (B)", "setting": "[2]; Potassium Chloride 0.2%", "value": 3160, "unit": "µg/mL"},
      {"measurement": "Precipitation", "setting": "[2]; Potassium Chloride 0.2%", "value": "yes"},
      {"measurement": "solubility thermodynamic", "setting": "[2]; aqueous saturated solution, pH 7, water, thermodynamic from solid, saturated solution before adding Mannitol 3.5%, read-out: Conc. of C w/o additive (A)", "value": 11500, "unit": "µg/mL"},
      {"measurement": "B/A ratio", "setting": "[2]; disodium hydrogenphosphate 1%", "value": 24, "unit": "%"},
      {"measurement": "Conc. of C/w additive (B)", "setting": "[2]; disodium hydrogenphosphate 1%", "value": 2540, "unit": "µg/mL"},
      {"measurement": "Precipitation", "setting": "[2]; disodium hydrogenphosphate 1%", "value": "yes"},
      {"measurement": "Conc. of C w/o additive (A)", "setting": "[2]; saturated solution before adding Boric acid 2%", "value": 11510, "unit": "µg/mL"},
      {"measurement": "Conc. of C w/o additive (A)", "setting": "[2]; saturated solution before adding Glycerin 2.5%", "value": 11510, "unit": "µg/mL"},
      {"measurement": "Conc. of C w/o additive (A)", "setting": "[2]; saturated solution before adding Potassium Chloride 0.2%", "value": 10730, "unit": "µg/mL"},
      {"measurement": "Conc. of C w/o additive (A)", "setting": "[2]; saturated solution before adding disodium hydrogenphosphate 1%", "value": 10730, "unit": "µg/mL"},
      {"measurement": "Conc. of C w/o additive (A)", "setting": "[2]; saturated solution before adding sodium citrate 1%", "value": 10730, "unit": "µg/mL"},
      {"measurement": "B/A ratio", "setting": "[2]; sodium citrate 1%", "value": 4, "unit": "%"},
      {"measurement": "Conc. of C/w additive (B)", "setting": "[2]; sodium citrate 1%", "value": 480, "unit": "µg/mL"},
      {"measurement": "Precipitation", "setting": "[2]; sodium citrate 1%", "value": "yes"},
      {"measurement": "Change in Concentration of Compound C (vs the initial conc.)", "setting": "[3]; [8]", "value": 104.9, "unit": "%"},
      {"measurement": "Change in Concentration of Compound C (vs the initial conc.)", "setting": "[3]; [9]", "value": 106.2, "unit": "%"},
      {"measurement": "Change in Concentration of Compound C (vs the initial conc.)", "setting": "[3]; [10]", "value": 108.2, "unit": "%"},
      {"measurement": "Change in Concentration of Compound C (vs the initial conc.)", "setting": "[3]; Boric acid 1.68% and borax 0.018%, 40° C., Initial", "value": "=100%"},
      {"measurement": "Change in Concentration of Compound C (vs the initial conc.)", "setting": "[3]; Glycerin 2.5%, Compound C 0.3%, about pH 6, 40° C., 1 month", "value": 105.4, "unit": "%"},
      {"measurement": "Change in Concentration of Compound C (vs the initial conc.)", "setting": "[3]; Glycerin 2.5%, Compound C 0.3%, about pH 6, 40° C., 3 months", "value": 110.6, "unit": "%"},
      {"measurement": "Change in Concentration of Compound C (vs the initial conc.)", "setting": "[3]; Glycerin 2.5%, Compound C 0.3%, about pH 6, 40° C., 6 months", "value": 112.3, "unit": "%"},
      {"measurement": "Change in Concentration of Compound C (vs the initial conc.)", "setting": "[3]; Glycerin 2.5%, Compound C 0.3%, about pH 6, 40° C., Initial", "value": "=100%"},
      {"measurement": "Change in Concentration of Compound C (vs the initial conc.)", "setting": "[3]; Mannitol 4.7%, 40° C., 1 month", "value": 103.7, "unit": "%"},
      {"measurement": "Change in Concentration of Compound C (vs the initial conc.)", "setting": "[3]; Mannitol 4.7%, 40° C., 3 months", "value": 108.4, "unit": "%"},
      {"measurement": "Change in Concentration of Compound C (vs the initial conc.)", "setting": "[3]; Mannitol 4.7%, 40° C., 6 months", "value": 109.6, "unit": "%"},
      {"measurement": "Change in Concentration of Compound C (vs the initial conc.)", "setting": "[3]; Mannitol 4.7%, 40° C., Initial", "value": "=100%"},
      {"measurement": "% Solubulity", "setting": "[1]; NaCl 0% (reference)", "value": "=100%"},
      {"measurement": "% Solubulity", "setting": "[1]; NaCl 0.4%, vs 0% NaCl", "value": 16, "unit": "%"},
      {"measurement": "% Solubulity", "setting": "[1]; NaCl 0.85%, vs 0% NaCl", "value": 8, "unit": "%"},
      {"measurement": "solubility", "setting": "[1]; [5]", "value": 1760, "unit": "µg/mL"},
      {"measurement": "solubility", "setting": "[1]; [6]", "value": 860, "unit": "µg/mL"},
      {"measurement": "Precipitation", "setting": "[1]; conc. of NaCl 0%", "value": "no"},
      {"measurement": "Precipitation", "setting": "[1]; conc. of NaCl 0.4%", "value": "yes"},
      {"measurement": "Precipitation", "setting": "[1]; conc. of NaCl 0.85%", "value": "yes"},
      {"measurement": "solubility", "setting": "[1]; [7]", "value": 10700, "unit": "µg/mL"}
    ]},
    {"smiles": "CC(=O)Nc1nc(CCc2ccc(NC(=N)N)cc2)c(Cc2ccc(S(C)(=O)=O)cc2)s1.Cl", "note": "[Compound D]", "values": [
      {"measurement": "Change in Concentration of Compound D (vs the initial conc.)", "setting": "[4]; [8]", "value": 99.7, "unit": "%"},
      {"measurement": "Change in Concentration of Compound D (vs the initial conc.)", "setting": "[4]; [9]", "value": 105.8, "unit": "%"},
      {"measurement": "Change in Concentration of Compound D (vs the initial conc.)", "setting": "[4]; [10]", "value": 102.6, "unit": "%"},
      {"measurement": "Change in Concentration of Compound D (vs the initial conc.)", "setting": "[4]; Boric acid 1.68% and borax 0.018%, 40° C., initial", "value": "=100%"},
      {"measurement": "Change in Concentration of Compound D (vs the initial conc.)", "setting": "[4]; Glycerin 2.5%, about pH 6, 40° C., 1 month", "value": 100.8, "unit": "%"},
      {"measurement": "Change in Concentration of Compound D (vs the initial conc.)", "setting": "[4]; Glycerin 2.5%, about pH 6, 40° C., 3 months", "value": 107.7, "unit": "%"},
      {"measurement": "Change in Concentration of Compound D (vs the initial conc.)", "setting": "[4]; Glycerin 2.5%, about pH 6, 40° C., 6 months", "value": 104.4, "unit": "%"},
      {"measurement": "Change in Concentration of Compound D (vs the initial conc.)", "setting": "[4]; Glycerin 2.5%, about pH 6, 40° C., initial", "value": "=100%"}
    ]}
  ]
}
